Data from ChEMBL document CHEMBL1128664, “FPL 64176: The effect of the chain length separating the two aryl groups on calcium agonist activity” (Bioorg Med Chem Lett, 1995).
Calls of active or inactive are those of the source. The calls are words filed in the database; no cut-off is given here.

What was measured:
[1] = tested on: GH3; test: Maximal stimulation of Ca 2+ uptake was determined; type: functional, Rattus norvegicus
[2] = tested on: GH3; test: Effect on K+ stimulated [Ca2+] influx in GH3 cells at 10e-7 concentration; type: functional, Rattus norvegicus
[3] = tested on: GH3; test: Effect on K+ stimulated [Ca2+] influx in GH3 cells at 10e-5 concentration; type: functional, Rattus norvegicus
[4] = tested on: GH3; test: Effect on K+ stimulated [Ca2+] influx in GH3 cells at 10e-6 concentration; type: functional, Rattus norvegicus
[5] = tested on: GH3; test: Effect on K+ stimulated [Ca2+] influx in GH3 cells at 10e-8 concentration; type: functional, Rattus norvegicus
[6] = tested on: GH3; test: Concentration required for enhancing calcium influx into GH 3 cells was determined; type: functional, cell-based; settings: Rattus norvegicus
[7] = tested on: GH3; test: Concentration required for 84% enhancing calcium influx intoGH 3 cells was determined; type: functional, cell-based; settings: Rattus norvegicus
[8] = tested on: GH3; test: Maximal stimulation of Ca 2+ uptake was determined; no significant effect; type: functional, cell-based; settings: Rattus norvegicus

| SMILES | Stimulation [1] [%] | Increase [2] [%] | Increase [3] [%] | Increase [4] [%] | Increase [5] [%] | EC50 [6] [µM] | EC50 [7] [µM] | Stimulation [8] |
| --- | --- | --- | --- | --- | --- | --- | --- | --- |
| COC(=O)c1c(C)[nH]c(C)c1C(=O)c1ccccc1CCc1ccccc1 | 420 | 120 | 350 | 340 | 0 | 0.207 | – | – |
| COC(=O)c1c(C)[nH]c(C)c1C(=O)c1ccccc1Cc1ccccc1 | 298 | 140 | 280 | 240 | 20 | 0.14 | – | – |
| COC(=O)c1c(C)[nH]c(C)c1C(=O)c1ccccc1CCCCc1ccccc1 | – | 20 | 20 | 80 | 0 | – | 10 | inactive |
| COC(=O)c1c(C)[nH]c(C)c1C(=O)c1ccccc1-c1ccccc1 | – | -8 | 0 | -8 | 0 | – | – | inactive |
| COC(=O)c1c(C)[nH]c(C)c1C(=O)c1ccccc1CCCc1ccccc1 | 265 | 0 | 220 | 160 | -8 | 0.614 | – | – |
